Numbers after ± are expanded uncertainties.
Assay: refractive index (Na D-line) (dimensionless); xn = mol fraction of the nth substance listed
Conditions: 100 kPa, Liquid, Standard Abbe refractometry

**Q.** Which results are given for `CCOC(=O)CCC(=O)OCC` [diethyl butanedioate] + CCCC(=O)OCC?
**A.** refractive index (288.15 K, x2 = 0.0999): 1.4198 ± 0.0014; refractive index (288.15 K, x2 = 0.2): 1.4177 ± 0.0014; refractive index (288.15 K, x2 = 0.3003): 1.4154 ± 0.0014; refractive index (288.15 K, x2 = 0.3999): 1.413 ± 0.0014; refractive index (288.15 K, x2 = 0.5): 1.4104 ± 0.0014; refractive index (288.15 K, x2 = 0.5997): 1.4076 ± 0.0014; refractive index (288.15 K, x2 = 0.7): 1.4048 ± 0.0014; refractive index (288.15 K, x2 = 0.7999): 1.4016 ± 0.0014; refractive index (288.15 K, x2 = 0.8999): 1.3986 ± 0.0014; refractive index (293.15 K, x2 = 0.0999): 1.4176 ± 0.0014; refractive index (293.15 K, x2 = 0.2): 1.4155 ± 0.0014; refractive index (293.15 K, x2 = 0.3003): 1.4132 ± 0.0014; refractive index (293.15 K, x2 = 0.3999): 1.4107 ± 0.0014; refractive index (293.15 K, x2 = 0.5): 1.4081 ± 0.0014; refractive index (293.15 K, x2 = 0.5997): 1.4053 ± 0.0014; refractive index (293.15 K, x2 = 0.7): 1.4024 ± 0.0014; refractive index (293.15 K, x2 = 0.7999): 1.3992 ± 0.0014; refractive index (293.15 K, x2 = 0.8999): 1.3961 ± 0.0014; refractive index (298.15 K, x2 = 0.0999): 1.4154 ± 0.0014; refractive index (298.15 K, x2 = 0.2): 1.4132 ± 0.0014; refractive index (298.15 K, x2 = 0.3003): 1.4109 ± 0.0014; refractive index (298.15 K, x2 = 0.3999): 1.4084 ± 0.0014; refractive index (298.15 K, x2 = 0.5): 1.4058 ± 0.0014; refractive index (298.15 K, x2 = 0.5997): 1.403 ± 0.0014; refractive index (298.15 K, x2 = 0.7): 1.4 ± 0.0014; refractive index (298.15 K, x2 = 0.7999): 1.3968 ± 0.0014; refractive index (298.15 K, x2 = 0.8999): 1.3937 ± 0.0014; refractive index (303.15 K, x2 = 0.0999): 1.4132 ± 0.0014; refractive index (303.15 K, x2 = 0.2): 1.411 ± 0.0014; refractive index (303.15 K, x2 = 0.3003): 1.4086 ± 0.0014; refractive index (303.15 K, x2 = 0.3999): 1.4061 ± 0.0014; refractive index (303.15 K, x2 = 0.5): 1.4035 ± 0.0014; refractive index (303.15 K, x2 = 0.5997): 1.4006 ± 0.0014; refractive index (303.15 K, x2 = 0.7): 1.3976 ± 0.0014; refractive index (303.15 K, x2 = 0.7999): 1.3944 ± 0.0014; refractive index (303.15 K, x2 = 0.8999): 1.3912 ± 0.0014; refractive index (308.15 K, x2 = 0.0999): 1.411 ± 0.0014; refractive index (308.15 K, x2 = 0.2): 1.4088 ± 0.0014; refractive index (308.15 K, x2 = 0.3003): 1.4063 ± 0.0014; refractive index (308.15 K, x2 = 0.3999): 1.4038 ± 0.0014; refractive index (308.15 K, x2 = 0.5): 1.4011 ± 0.0014; refractive index (308.15 K, x2 = 0.5997): 1.3982 ± 0.0014; refractive index (308.15 K, x2 = 0.7): 1.3952 ± 0.0014; refractive index (308.15 K, x2 = 0.7999): 1.392 ± 0.0014; refractive index (308.15 K, x2 = 0.8999): 1.3888 ± 0.0014; refractive index (313.15 K, x2 = 0.0999): 1.4088 ± 0.0014; refractive index (313.15 K, x2 = 0.2): 1.4065 ± 0.0014; refractive index (313.15 K, x2 = 0.3003): 1.4041 ± 0.0014; refractive index (313.15 K, x2 = 0.3999): 1.4015 ± 0.0014; refractive index (313.15 K, x2 = 0.5): 1.3988 ± 0.0014; refractive index (313.15 K, x2 = 0.5997): 1.3959 ± 0.0014; refractive index (313.15 K, x2 = 0.7): 1.3928 ± 0.0014; refractive index (313.15 K, x2 = 0.7999): 1.3895 ± 0.0014; refractive index (313.15 K, x2 = 0.8999): 1.3862 ± 0.0014; refractive index (318.15 K, x2 = 0.0999): 1.4066 ± 0.0014; refractive index (318.15 K, x2 = 0.2): 1.4043 ± 0.0014; refractive index (318.15 K, x2 = 0.3003): 1.4018 ± 0.0014; refractive index (318.15 K, x2 = 0.3999): 1.3992 ± 0.0014; refractive index (318.15 K, x2 = 0.5): 1.3964 ± 0.0014; refractive index (318.15 K, x2 = 0.5997): 1.3935 ± 0.0014; refractive index (318.15 K, x2 = 0.7): 1.3904 ± 0.0014; refractive index (318.15 K, x2 = 0.7999): 1.387 ± 0.0014; refractive index (318.15 K, x2 = 0.8999): 1.3837 ± 0.0014; refractive index (323.15 K, x2 = 0.0999): 1.4044 ± 0.0014; refractive index (323.15 K, x2 = 0.2): 1.402 ± 0.0014; refractive index (323.15 K, x2 = 0.3003): 1.3995 ± 0.0014; refractive index (323.15 K, x2 = 0.3999): 1.3968 ± 0.0014; refractive index (323.15 K, x2 = 0.5): 1.394 ± 0.0014; refractive index (323.15 K, x2 = 0.5997): 1.391 ± 0.0014; refractive index (323.15 K, x2 = 0.7): 1.3878 ± 0.0014; refractive index (323.15 K, x2 = 0.7999): 1.3844 ± 0.0014; refractive index (323.15 K, x2 = 0.8999): 1.3809 ± 0.0014
